Measured values: ChEMBL document CHEMBL2417406, “Exploring the orthosteric binding site of the γ-aminobutyric acid type A receptor using 4-(Piperidin-4-yl)-1-hydroxypyrazoles 3- or 5-imidazolyl substituted: design, synthesis, and pharmacological evaluation” (J Med Chem, 2013)

Columns and labels:
[1] = molecular target: T1, GABA-A receptor; alpha-1/beta-2/gamma-2 (Homo sapiens, UniProt P14867+P18507+P47870); test: Antagonist activity at human alpha1beta2gamma2S GABA-A receptor expressed in tsA201 cells assessed as inhibition of GABA-induced effect after 30 mins by FLIPR membrane potential blue assay; assay type: cell-based
T1 sequence (P14867 whole entry): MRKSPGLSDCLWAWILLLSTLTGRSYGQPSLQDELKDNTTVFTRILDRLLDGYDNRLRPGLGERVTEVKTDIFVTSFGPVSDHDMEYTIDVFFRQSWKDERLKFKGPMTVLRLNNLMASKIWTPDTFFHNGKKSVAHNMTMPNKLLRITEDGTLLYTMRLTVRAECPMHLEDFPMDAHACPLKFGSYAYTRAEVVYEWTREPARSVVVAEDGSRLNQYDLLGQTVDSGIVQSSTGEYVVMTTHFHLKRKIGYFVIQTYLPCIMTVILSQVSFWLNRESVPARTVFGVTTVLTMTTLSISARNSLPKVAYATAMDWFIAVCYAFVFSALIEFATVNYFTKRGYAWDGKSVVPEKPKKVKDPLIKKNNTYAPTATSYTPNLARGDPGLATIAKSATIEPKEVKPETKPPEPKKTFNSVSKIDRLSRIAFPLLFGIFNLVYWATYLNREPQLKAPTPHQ
T1 sequence (P47870 whole entry): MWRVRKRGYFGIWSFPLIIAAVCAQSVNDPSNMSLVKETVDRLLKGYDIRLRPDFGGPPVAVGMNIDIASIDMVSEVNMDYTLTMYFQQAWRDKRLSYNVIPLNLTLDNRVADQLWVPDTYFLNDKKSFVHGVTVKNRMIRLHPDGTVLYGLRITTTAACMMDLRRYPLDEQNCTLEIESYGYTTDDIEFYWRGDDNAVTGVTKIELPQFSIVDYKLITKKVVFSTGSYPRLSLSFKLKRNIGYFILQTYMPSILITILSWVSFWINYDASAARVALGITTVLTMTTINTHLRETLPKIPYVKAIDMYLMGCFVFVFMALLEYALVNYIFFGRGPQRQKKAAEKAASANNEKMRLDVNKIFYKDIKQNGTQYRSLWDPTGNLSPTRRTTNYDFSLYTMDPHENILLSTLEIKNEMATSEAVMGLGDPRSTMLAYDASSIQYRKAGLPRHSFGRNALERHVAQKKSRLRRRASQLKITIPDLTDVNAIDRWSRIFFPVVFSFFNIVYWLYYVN
T1 sequence (P18507 whole entry): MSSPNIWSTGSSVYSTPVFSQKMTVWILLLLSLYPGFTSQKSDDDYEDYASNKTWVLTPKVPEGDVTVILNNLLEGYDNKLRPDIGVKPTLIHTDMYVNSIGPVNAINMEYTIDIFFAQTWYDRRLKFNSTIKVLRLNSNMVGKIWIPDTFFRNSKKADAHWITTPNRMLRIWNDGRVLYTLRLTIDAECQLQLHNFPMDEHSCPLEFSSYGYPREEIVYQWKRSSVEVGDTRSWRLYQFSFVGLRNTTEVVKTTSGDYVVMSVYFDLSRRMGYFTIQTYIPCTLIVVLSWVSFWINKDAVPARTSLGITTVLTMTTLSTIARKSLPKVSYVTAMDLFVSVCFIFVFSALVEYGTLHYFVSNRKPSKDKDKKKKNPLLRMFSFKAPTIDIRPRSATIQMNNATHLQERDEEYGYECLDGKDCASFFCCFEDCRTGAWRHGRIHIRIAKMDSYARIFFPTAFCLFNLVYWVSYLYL

[2] = Displacement of [3H] muscimol from rat GABA A receptor

| SMILES | IC50 [1] | Ki [2] | pKi [2] |
| --- | --- | --- | --- |
| On1cc(C2CCNCC2)cn1 | > 500000 nM | 10000 nM |  |
| On1cc(C2CCNCC2)c(-c2c[nH]cn2)n1 | 30000 nM | 5100 nM | 5.31 |
| On1ncc(C2CCNCC2)c1-c1c[nH]cn1 |  | 7500 nM | 5.14 |
| On1ncc(C2CCNCC2)c1-c1cn(Cc2ccccc2)c(Cl)n1 |  | 830 nM | 6.09 |
| On1ncc(C2CCNCC2)c1-c1c[nH]c(-c2ccccc2)n1 | 690 nM | 14 nM | 7.86 |
| COc1ccc(-c2ccc(=N)n(CCCC(=O)O)n2)cc1 [GABAZINE] | 240 nM | […] |  |

Second part, the molecule after the results:

| IC50 [1] | Ki [2] | pKi [2] | SMILES |
| --- | --- | --- | --- |
|  | 30 nM |  | On1cc(C2CCNCC2)c(-c2cccc(-c3ccccc3)c2)n1 |
|  | 740 nM | 6.14 | On1cc(C2CCNCC2)c(-c2cn(Cc3ccccc3)c(Cl)n2)n1 |
| 9700 nM | 2500 nM | 5.61 | On1cc(C2CCNCC2)c(-c2c[nH]c(-c3ccccc3)n2)n1 |
| 210 nM | 280 nM | 6.57 | On1cc(C2CCNCC2)c(-c2cn(Cc3ccccc3)c(-c3ccccc3)n2)n1 |
|  | 750 nM | 6.13 | On1cc(C2CCNCC2)c(-c2cn(Cc3ccccc3)cn2)n1 |
| 780 nM | 230 nM | 6.64 | On1ncc(C2CCNCC2)c1-c1cn(Cc2ccccc2)c(-c2ccccc2)n1 |
